Data set [1] has as its system normal human epidermal keratinocytes (NHEKs). The data set can be described thus: Scratch wound assay, normal human epidermal keratinocytes. It is filed as cell-based. The note with it: NHEK, 10^−7/10^−8 M range, 15% and 30% HKGS, 24 hours. On the procedure:
(§1) Primary human dermal fibroblasts (HDF) were isolated from abdominal skin or leg skin. Primary neonatal normal human epidermal keratinocytes (NHEK) were purchased (Lonza). Murine dermal fibroblasts (MDF), murine epidermal keratinocytes (MEK), murine peritoneal macrophages and murine bone marrow were isolated from C57/B16 (wt). NDb (Lepr+/−) or Db (Lepr−/−) mice.
(§2) Neonatal HEK were cultured in EpiLife supplemented with […] human keratinocyte growth supplements (HKGS) and 1% penicillin/streptomycin. MEK were cultured in CnT basal medium supplemented with 1% penicillin/streptomycin and 1% amphotericin B.
Cells were seeded into 24 well plates and cultured to form a confluent monolayer, and then scratched with a 1 ml pipette tip. Wells were treated with E2, E4 and/or various estrogen receptor agonists and antagonists. […] A vehicle control containing the equivalent concentration of EtOH and/or DMSO was included, in addition to an untreated negative control. All treatments were diluted to working concentrations in media supplemented with 2% charcoal-stripped FBS. […] Scratch closure was determined from multiple independent measurements per well.
The effects of E2 and E4 on keratinocyte migration where evaluated using primary normal human epidermal keratinocytes (NHEKs).

Data set [2] deals with primary mouse epidermal keratinocytes (MEKs). The data set can be described thus: qPCR gene expression in primary mouse epidermal keratinocytes. It is filed as cell-based. The note with it: MEK; for expression of EMT marker Snail: 10^−7M; for expression of ERα and ERβ: particularly at 10^−7M, 24 hours, not statistically significant. Here is the method:
as §1, §2
Following treatments, human and murine macrophages were collected in Trizol and RNA isolated using the Trizol plus RNA isolation kit (Invitrogen. Thermo Fisher) according to the manufacturer's instructions. RNA was reverse transcribed to cDNA using GoScript reverse transcriptase (Promega). Quantitative real-time PCR was carried out using 2×Takyon SYBR Green mastermix and a CFX Connect thermocycler. Primers for ERα and ERβ were used to explore changes in ER expression after treatment of MEK and MDF with E2 and E4. To investigate the effect of E2 and E4 on MEK differentiation and the expression of ECM proteins by MDF, primers for. Snail, keratin-1 and fibronectin, collagen I. MMP-2 and MMP-9 were used. Primers for INOS. IL-1B and Tnf-α or Ccl17 were used to assess M1/M2 polarisation status. Primers for GAPDH were used to normalise data. Relative gene expression was set to vehicle controls or M0 expression unless otherwise stated.
Next, we switched to primary mouse epidermal keratinocytes (MEKs) to explore the effect of E2 and E4 on MEK wound-relevant gene expression. […] Snail, following treatment with either E2 or E4 at 10^−7M. […] In general, the observed effects of E2 and E4 on gene expression were reversed by co-treatment with the ER antagonist ICI.

The subject of data set [3] is Female wild-type (C57BL/6J) 8 weeks old mice. Put plainly: In vivo LPS-induced delayed wound healing model: uterine weight and morphology. The note with it: topical, 60 μl on days -1 to 4, LPS mice, assessed at day 5. An excerpt:
The in vivo LPS-induced delayed wound healing model was reproduced as previously described (Crompton R, Williams H, Ansell D, Campbell L, Holden K, Cruickshank S, Hardman M J. Oestrogen promotes healing in a bacterial LPS model of delayed cutaneous wound repair. Lab Invest. 2016 April, 96 (4): 439-49).
Female wild-type (C57BL/6J) 8 weeks old mice were split into six groups (6 animals per experimental group): • Double placebo control (no LPS, placebo treatment), • LPS control (LPS, placebo treatment), • LPS with topical EstroGel (estradiol gel, contains 0.06% 17β-estradiol as hemihydrate in a hydro-alcoholic gel), • LPS with topical AG24 (E4 at 0.5%), • LPS with topical AG25 (E4 at 0.22%), • LPS with topical AG26 (E4 at 0.06%).
The day prior to wounding (day −1), all the animals were weighed and anaesthetised using oxygen and isoflurane (flow rate 1.25-2 L with 2-2.5% isoflurane depending on clinical signs). Animals were shaved and dorsal areas prepped. Wound positions (2 wounds) were marked on the dorsum of each animal. Animals received a first subcutaneous injection of 2 μg K. pneumoniae-derived LPS diluted in DPBS (1 μg per wound: Sigma Aldrich, UK: L4268) at the wound site, except the double placebo group that received DPBS only. A thin layer of EstroGel, AG24, AG25, AG26 or placebo were then applied to the dorsum of each animal, measured as 60 μl total (30 μl/wound). […]

For data set [4], the system named is LPS-induced delayed wound healing mice model. The data set can be described thus: In vivo LPS model, single or repeated administration: wound histology at day 3. Particulars: single administration. The text has this: The in vivo LPS treatment protocol (delayed wound healing model) as presented in example 4 has been repeated with the following groups of animals: • Double placebo group (untreated control). • LPS control (LPS, placebo treatment). • LPS with topical EstroGel (estradiol gel, contains 0.06% 17β-estradiol as hemihydrate in a hydro-alcoholic gel), repeated administration for 4 days. • LPS with topical AG26 (E4 at 0.06%), single administration. • LPS with topical AG26 (E4 at 0.06%), repeated administration for 4 days. • LPS with topical AG28 (E4 at 0.06%), single administration. • LPS with topical AG28 (E4 at 0.06%), repeated administration for 4 days. On day 0 only (single administration), or on days −1, 0, 1 and 2 (repeated administration), topical EstroGel. AG26. AG28 or corresponding placebo was applied in a thin layer over the top of the wounds (60 μl total: 30 μl/wound) during observations. On day 3, mice were humanely culled via rising concentration of CO2 and cervical dislocation. Uteri as well as non-wounded and wound tissue samples were processed as described under example 4. […] Next, we evaluated wound closure from histological samples (FIG. 13). Histological sections were subjected to K14 immunohistochemistry to visualise the newly forming epidermis.

Data set [5] has as its system wound expression of M1 (TNF-α and IL1-β) and M2 (Fizz1 and Ym1) markers. The data set can be described thus: In vivo LPS model: qPCR of M1 and M2 markers in wound tissue RNA. The arrangement: species or system mice. The note with it: versus LPS/PBO control. (In qPCR the cycle at which signal appears reflects the starting amount.)
Description: Female wild-type (C57BL/6J) 8 weeks old mice were split into six groups (6 animals per experimental group): • Double placebo control (no LPS, placebo treatment), • LPS control (LPS, placebo treatment), • LPS with topical EstroGel (estradiol gel, contains 0.06% 17β-estradiol as hemihydrate in a hydro-alcoholic gel), • LPS with topical AG24 (E4 at 0.5%), • LPS with topical AG25 (E4 at 0.22%), • LPS with topical AG26 (E4 at 0.06%). The day prior to wounding (day -1), all the animals were weighed and anaesthetised using oxygen and isoflurane (flow rate 1.25-2 L with 2-2.5% isoflurane depending on clinical signs). Animals were shaved and dorsal areas prepped. Wound positions (2 wounds) were marked on the dorsum of each animal. […] A thin layer of EstroGel, AG24, AG25, AG26 or placebo were then applied to the dorsum of each animal, measured as 60 μl total (30 μl/wound). […] For isolation of RNA and quantitative real time PCR murine macrophages were collected in Trizol and RNA was isolated using a Trizol plus RNA isolation kit (Invitrogen. Thermo Fisher) according to the manufacturer's instructions. […] Quantitative real-time PCR was carried out using 2×Takyon SYBR Green mastermix and a CFX Connect thermocycler. […]

Structures are written as SMILES.

Regarding `C[C@]12CC[C@@H]3c4ccc(O)cc4CC[C@H]3[C@@H]1CC[C@@H]2O` [Formulation E2, 17β-estradiol, reference compound], the scratch wound closure entry in data set [1] was “strong trend to faster wound closure”. Besides, in data set [2], the “expression of differentiation marker Keratin 1 (Krt1)” value is on record as “trend towards downregulation”; the “expression of EMT marker Snail” value is “statistically significant induction”; the “expression of ERα and ERβ” value was “strong trend towards induction of both ERα and ERβ”.

`C[C@]12CC[C@@H]3c4ccc(O)cc4CC[C@H]3[C@@H]1[C@@H](O)[C@@H](O)[C@@H]2O` [Formulation E4, 1,3,5 (10)-estratrien-3,15alpha, 16alpha, 17beta-tetrol]: in data set [1], the scratch wound closure result was “strong trend to faster wound closure”. Further, the “uterine weight and morphology” value in data set [3] is on record as “affects uterine weight in a dose-dependent manner”. In data set [2], the “expression of differentiation marker Keratin 1 (Krt1)” value is recorded as “trend towards downregulation”; the “expression of EMT marker Snail” value is listed as “statistically significant induction”; the “expression of ERα and ERβ” value is “strong trend towards increased expression of both ERα and ERβ”. Further, the “numbers of wound neutrophils” value in data set [4] is “reduced numbers of wound neutrophils”. Further, in data set [5], the “wound M1 marker expression (TNF-α, IL1-β)” value was “reduced M1 marker expression” and the “wound M2 marker expression (Fizz1, Ym1)” value was “increased M2 marker expression”.

These data come from patent US20260115202A1, “TOPICAL COMPOSITIONS COMPRISING AN ESTETROL COMPONENT AND USE OF SAID COMPOSITIONS FOR WOUND HEALING” (NEURALIS SA, priority 2022, published 2026).
